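Exposure lasted 48 hours, with cells grown in 96-well plates and compounds tested at five concentrations. GI50: concentration for 50% inhibition of growth.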 Calls of active or inactive are those of the source. Rule as the data show it: active = GI50 up to about 1.1 µM and inactive = higher.
Tests used:
Assay in all cases: inhibition of tumour cell growth, NCI panel, 48 h
HT-29 = test system: HT-29
786-0 = test system: 786-0
NCI-H226 = test system: NCI-H226
MCF7 = test system: MCF7
A549 = test system: A549
NCI-H460 = test system: NCI-H460
COLO 205 = test system: COLO 205
HOP-92 = test system: HOP-92
MDA-MB-435 = test system: MDA-MB-435
SK-MEL-2 = test system: SK-MEL-2
SR = test system: SR
U-251 = test system: U-251
M14 = test system: M14
K562 = test system: K562
SK-MEL-5 = test system: SK-MEL-5
MOLT-4 = test system: MOLT-4
RXF 393 = test system: RXF 393
OVCAR-5 = test system: OVCAR-5
CAKI-1 = test system: CAKI-1
NCI/ADR-RES = test system: NCI/ADR-RES
HL-60 = test system: HL-60
SF-268 = test system: SF-268
T47D = test system: T47D
RPMI-8226 = test system: RPMI-8226
HOP-62 = test system: HOP-62
IGROV-1 = test system: IGROV-1
OVCAR-4 = test system: OVCAR-4
SNB-75 = test system: SNB-75
ACHN = test system: ACHN
Malme-3M = test system: Malme-3M
SW-620 = test system: SW-620
CCRF-CEM = test system: CCRF-CEM
SK-OV-3 = test system: SK-OV-3
NCI-H23 = test system: NCI-H23
SK-MEL-28 = test system: SK-MEL-28
UACC-62 = test system: UACC-62

Measured: GI50

COc1ccc(/C=C\c2cc(OC)c(OC)c(OC)c2)cc1OC(=O)C(N)CCC(=O)O (stereo not drawn)
inactive: HT-29 2.34 µM
active: 786-0 0.000792 µM | NCI-H226 0.00123 µM | MCF7 0.00187 µM | A549 0.000944 µM

O=C(Nc1nccs1)c1cc2c(cc1Cl)Sc1nccn1S2(=O)=O
inactive: NCI-H460 16 µM | COLO 205 16.7 µM | HOP-92 15.3 µM | MDA-MB-435 17.2 µM

C=CCNc1nc2c(N)ncnc2s1
inactive: SK-MEL-2 > 10 µM | NCI-H460 > 10 µM | COLO 205 > 10 µM | SR > 10 µM | U-251 > 10 µM | M14 > 10 µM | K562 > 10 µM | SK-MEL-5 > 10 µM | HOP-92 > 10 µM | 786-0 > 10 µM | MOLT-4 > 10 µM | RXF 393 > 10 µM | OVCAR-5 > 10 µM | CAKI-1 > 10 µM | NCI/ADR-RES > 10 µM | HL-60 > 10 µM | MDA-MB-435 > 10 µM | SF-268 > 10 µM | T47D > 10 µM | RPMI-8226 > 10 µM | HOP-62 > 10 µM | IGROV-1 > 10 µM | OVCAR-4 > 10 µM | SNB-75 > 10 µM | ACHN > 10 µM | Malme-3M > 10 µM | SW-620 > 10 µM | MCF7 > 10 µM | CCRF-CEM > 10 µM | SK-OV-3 > 10 µM | A549 > 10 µM | NCI-H23 > 10 µM | SK-MEL-28 > 10 µM | UACC-62 > 10 µM

Source: ChEMBL document CHEMBL1201862, “PubChem BioAssay data set” (2004)
